The source of these data is patent US7683176B2, “Triazolyl pyridyl benzenesulfonamides” (ChemoCentryx, Inc., priority 2006, dated 2010).

The term IC50 denotes the concentration that inhibits the measured activity by half.

Some results are limits rather than exact numbers.

The experiment has as its target T1, CCR2 (Homo sapiens, UniProt P41597).
T1 construct: chemokine expressing cells (such as THP-1 cells for CCR2 assay or MOLT-4 cells for CCR9 assay); host or cells: THP-1
T1 sequence (P41597 1-360 isoform P41597-2): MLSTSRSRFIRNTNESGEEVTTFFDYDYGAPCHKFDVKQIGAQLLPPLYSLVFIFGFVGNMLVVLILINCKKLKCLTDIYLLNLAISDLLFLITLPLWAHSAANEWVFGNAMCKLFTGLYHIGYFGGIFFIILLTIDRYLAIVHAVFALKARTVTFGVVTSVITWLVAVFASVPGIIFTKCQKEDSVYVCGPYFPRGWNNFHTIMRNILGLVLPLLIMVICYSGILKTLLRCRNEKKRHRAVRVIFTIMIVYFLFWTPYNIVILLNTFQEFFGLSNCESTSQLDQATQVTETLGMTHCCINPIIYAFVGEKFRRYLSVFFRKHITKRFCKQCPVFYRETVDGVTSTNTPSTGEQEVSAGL
The experiment in a line: CCR2 activity in one of the chemotaxis, binding or calcium mobilization assays. In kind it is cell-based. The note with it: binding or calcium mobilization assays (THP-1 cells, MCP-1). The protocol: THP-1 cells and MOLT-4 cells were obtained from the American Type Culture Collection (Manassas, Va.) and cultured in RPMI tissue culture medium supplemented with 10% fetal calf serum (FCS) in a humidified 5% CO2 incubator at 37° C. Recombinant human chemokine proteins MCP-1 and TECK were obtained from R&D Systems (Minneapolis, Minn.). ^125I-labeled MCP-1 protein was obtained from Amersham (Piscataway, N.J.). ChemoTX® chemotaxis microchambers were purchased from Neuro Probe (Gaithersburg, Md.). CyQUANT® cell proliferation kits were purchased from Molecular Probes (Eugene, Oreg.). Calcium indicator dye Fluo-4 AM was purchased from Molecular Devices (Mountain View, Calif.).
Conventional migration assay was used to determine the efficacy of potential receptor antagonists in blocking migration mediated through chemokines (such as CCR2 or CCR9). This assay was routinely performed using the ChemoTX® microchamber system with a 5-μm pore-sized polycarbonate membrane. To begin such an assay, chemokine expressing cells (such as THP-1 cells for CCR2 assay or MOLT-4 cells for CCR9 assay) were harvested by centrifugation of cell suspension at 1000 RPM on a GS-6R Beckman centrifuge. The cell pellet was resuspended in chemotaxis buffer (HBSS with 0.1% BSA) at 10×10^6 cells/mL for CCR2 assay (5×10^6 cells/mL for CCR9 assay). Test compounds at desired concentrations were prepared from 10 mM stock solutions by serial dilutions in chemotaxis buffer. An equal volume of cells and compounds were mixed and incubated at room temperature for 15 minutes. Afterwards, 20 μL of the mixture was transferred onto the porous membrane of a migration microchamber, with 29 μL of chemokine ligand (0.1 nM chemokine MCP-1 protein for CCR2 assay or […] chemokine TECK protein for CCR9 assay) placed at the lower chamber. Following an incubation at 37° C. (90-minute for CCR2; 150-minute for CCR9), during which cells migrated […] the chemokine gradient, the assay was terminated by removing the cell drops from atop the filter. To quantify cells migrated across the membrane, 5 μL of 7× CyQUANT® solution was added to each well in the lower chamber, and the fluorescence signal measured on a Spectrafluor Plus fluorescence plate reader (TECAN, Durham, N.C.). The degree of inhibition was determined by comparing migration signals between compound-treated and untreated cells. IC50 calculation was further performed by non-linear squares regression analysis using Graphpad Prism (Graphpad Software, San Diego, Calif.).
Calcium flux assay measures an increase in intracellular calcium following ligand-induced receptor activation. In the screen of chemokine antagonists, it was used as a secondary assay carried out on a FLIPR® machine (Molecular Devices, Mountain View, Calif.). To begin an assay, chemokine expressing cells (such as THP-1 cells for CCR2 assay or MOLT-4 cells for CCR9 assay) were harvested by centrifugation of cell suspension, and resuspended to 1.5×10^6 cells/mL in HBSS (with 1% fetal calf serum). Cells were then labeled with a calcium indicator dye Fluo-4 AM for 45 minutes at 37° C. with gentle shaking. Following incubation, cells were pelletted, washed once with HBSS and resuspended in the same buffer at a density of 1.6×10^6 cells/mL. One hundred microliters of labeled cells were mixed with 10 μL of test compound at the appropriate concentrations on an assay plate. Chemokine protein (MCP-1 at a final concentration of 0.1 nM for CCR2 assay or TECK at a final concentration of 25 nM for CCR9 assay) to activate the receptor. The degree of inhibition was determined by comparing calcium signals between compound-treated and untreated cells. IC50 calculations were further performed by non-linear squares regression analysis using Graphpad Prism (Graphpad Software, San Diego, Calif.).
Ligand binding assay was used to determine the ability of potential CCR2 antagonists to block the interaction between CCR2 and its ligand MCP-1. […]

Turning to `Cc1cnc(-c2nncn2-c2cc[nH]n2)c(NS(=O)(=O)c2ccc(Cl)c(C(F)(F)F)c2)c1`, the IC50 is less than 1000 nM.

Turning to `CC(C)n1c(CO)nnc1-c1ncc(Cl)cc1NS(=O)(=O)c1ccc(Cl)c(C(F)(F)F)c1`, the concentration for half-maximal inhibition (IC50) was less than 1000 nM.

In the case of `NC(=O)c1nnc(-c2ncc(Cl)cc2NS(=O)(=O)c2ccc(Cl)c(C(F)(F)F)c2)n1-c1ccon1`, the IC50 is less than 1000 nM.

Consider `CC(C)n1c(Br)nnc1-c1ncc(Cl)cc1NS(=O)(=O)c1ccc(Cl)c(C(F)(F)F)c1`, for which the concentration for half-maximal inhibition (IC50) was less than 1000 nM.

With `COCc1nnc(-c2ncc(Cl)cc2NS(=O)(=O)c2ccc(Cl)c(C(F)(F)F)c2)n1-c1ccon1`, the half-inhibitory concentration (IC50) was less than 1000 nM.

As for `CO[C@H]1CNC[C@@H]1n1cnnc1-c1ncc(Cl)cc1NS(=O)(=O)c1ccc(Cl)c(C(F)(F)F)c1`, the half-inhibitory concentration (IC50) is less than 1000 nM.

Consider `O=S(=O)(Nc1cc(Br)cnc1-c1nncn1-c1ccon1)c1ccc(Cl)c(C(F)(F)F)c1`, for which the IC50 is less than 1000 nM.

Take `C[C@@H](CO)n1cnnc1-c1ncc(Cl)cc1NS(=O)(=O)c1ccc(Cl)c(C(F)(F)F)c1`: the IC50 was less than 1000 nM.

Consider `O=S(=O)(Nc1cc(Cl)cnc1-c1nncn1-c1cc[nH]n1)c1ccc(Cl)c(Cl)c1`, for which the IC50 was less than 1000 nM.

For `O=S(=O)(Nc1cc(Cl)cnc1-c1nncn1C1CCNC1)c1ccc(Cl)c(C(F)(F)F)c1` (stereo not drawn), the IC50 was less than 1000 nM.

On to `COc1ccc(F)cc1-n1cnnc1-c1ncc(Cl)cc1NS(=O)(=O)c1ccc(Cl)c(C(F)(F)F)c1`, for which the half-inhibitory concentration (IC50) was less than 1000 nM.

Regarding `Cc1n[nH]cc1-n1cnnc1-c1ncc(Cl)cc1NS(=O)(=O)c1ccc(Cl)c(C(F)(F)F)c1`, the concentration for half-maximal inhibition (IC50) is less than 1000 nM.

For `CC(CN(C)C)n1cnnc1-c1ncc(Cl)cc1NS(=O)(=O)c1ccc(Cl)c(C(F)(F)F)c1` (stereo not drawn), the IC50 is less than 1000 nM.

In the case of `CN(C)C(=O)c1nnc(-c2ncc(Cl)cc2NS(=O)(=O)c2ccc(Cl)c(C(F)(F)F)c2)n1-c1ccon1`, the half-maximal inhibitory concentration (IC50) is less than 1000 nM.

Turning to `O=S(=O)(Nc1cc(Cl)cnc1-c1nnc(CO)n1-c1ccon1)c1ccc(Cl)c(C(F)(F)F)c1`, the half-inhibitory concentration (IC50) is less than 1000 nM.

For the compound `O=S(=O)(Nc1cc(Br)cnc1-c1nncn1-c1cc[nH]n1)c1ccc(Cl)c(C(F)(F)F)c1`, the IC50 was less than 1000 nM.

Consider `O=C(c1nnc(-c2ncc(Cl)cc2NS(=O)(=O)c2ccc(Cl)c(C(F)(F)F)c2)n1-c1ccon1)N1CCOCC1`, for which the IC50 was less than 1000 nM.

With `O=S(=O)(Nc1cc(Cl)cnc1-c1nnc(C2CC2)n1-c1cc[nH]n1)c1ccc(Cl)c(C(F)(F)F)c1`, the IC50 is less than 1000 nM.

`CCCn1cnnc1-c1ncc(Cl)cc1NS(=O)(=O)c1ccc(Cl)c(C(F)(F)F)c1`: the half-inhibitory concentration (IC50) was less than 1000 nM.

In the case of `CCN(C)C(=O)c1nnc(-c2ncc(Cl)cc2NS(=O)(=O)c2ccc(Cl)c(C(F)(F)F)c2)n1-c1ccon1`, the 50% inhibitory concentration (IC50) is less than 1000 nM.

`CC(CCO)n1cnnc1-c1ncc(Cl)cc1NS(=O)(=O)c1ccc(Cl)c(C(F)(F)F)c1` (stereo not drawn): the IC50 was less than 1000 nM.

On to `COCc1nnc(-c2ncc(Cl)cc2NS(=O)(=O)c2ccc(Cl)c(C(F)(F)F)c2)n1-c1cc[nH]n1`, for which the concentration for half-maximal inhibition (IC50) is less than 1000 nM.

Turning to `Cc1c[nH]nc1-n1cnnc1-c1ncc(Cl)cc1NS(=O)(=O)c1ccc(Cl)c(C(F)(F)F)c1`, the 50% inhibitory concentration (IC50) is less than 1000 nM.

As to `CC(C)n1c(N)nnc1-c1ncc(Cl)cc1NS(=O)(=O)c1ccc(Cl)c(C(F)(F)F)c1`, the IC50 was less than 1000 nM.

Turning to `Cc1cnc(-c2nnc(C(N)=O)n2-c2ccon2)c(NS(=O)(=O)c2ccc(Cl)c(C(F)(F)F)c2)c1`, the 50% inhibitory concentration (IC50) is less than 1000 nM.

On to `O=S(=O)(Nc1cc(Cl)cnc1-c1nncn1-c1n[nH]cc1Br)c1ccc(Cl)c(Cl)c1`, for which the IC50 is less than 1000 nM.

`O=S(=O)(Nc1cc(Cl)cnc1-c1nncn1-c1cn[nH]c1)c1ccc(Cl)c(C(F)(F)F)c1`: the half-maximal inhibitory concentration (IC50) is less than 1000 nM.

`O=S(=O)(Nc1cc(Cl)cnc1-c1nncn1-c1ccon1)c1ccc(Cl)c(Cl)c1`: the IC50 is less than 1000 nM.

Turning to `O=S(=O)(Nc1cc(Cl)cnc1-c1nncn1-c1n[nH]cc1Br)c1ccc(Cl)c(C(F)(F)F)c1`, the half-inhibitory concentration (IC50) was less than 1000 nM.

On to `CC(C)(C)c1nnc(-c2ncc(Cl)cc2NS(=O)(=O)c2ccc(Cl)c(C(F)(F)F)c2)n1-c1cc[nH]n1`, for which the half-maximal inhibitory concentration (IC50) is less than 1000 nM.

As to `O=S(=O)(Nc1cc(Cl)cnc1-c1nnc(C(F)(F)F)n1-c1cc[nH]n1)c1ccc(Cl)c(C(F)(F)F)c1`, the 50% inhibitory concentration (IC50) was less than 1000 nM.

In the case of `O=S(=O)(Nc1cc(Cl)cnc1-c1nnc(Br)n1-c1ccon1)c1ccc(Cl)c(C(F)(F)F)c1`, the concentration for half-maximal inhibition (IC50) is less than 1000 nM.

Regarding `Cc1cnc(-c2nnc(C(N)=O)n2-c2ccccc2)c(NS(=O)(=O)c2ccc(Cl)c(C(F)(F)F)c2)c1`, the half-inhibitory concentration (IC50) was less than 1000 nM.

Turning to `O=S(=O)(Nc1cc(Cl)cnc1-c1nnc(C(F)(F)F)n1-c1ccccc1)c1ccc(Cl)c(C(F)(F)F)c1`, the concentration for half-maximal inhibition (IC50) was less than 1000 nM.

Turning to `O=S(=O)(Nc1cc(Cl)cnc1-c1nnc(Br)n1-c1n[nH]cc1Br)c1ccc(Cl)c(Cl)c1`, the concentration for half-maximal inhibition (IC50) is less than 1000 nM.

Turning to `CC(C)c1nnc(-c2ncc(Cl)cc2NS(=O)(=O)c2ccc(Cl)c(C(F)(F)F)c2)n1-c1cc[nH]n1`, the half-inhibitory concentration (IC50) is less than 1000 nM.

Consider `O=C(c1nnc(-c2ncc(Cl)cc2NS(=O)(=O)c2ccc(Cl)c(C(F)(F)F)c2)n1-c1ccon1)N1CCCC1`, for which the concentration for half-maximal inhibition (IC50) is less than 1000 nM.

For the compound `CC(C)n1c(Cl)nnc1-c1ncc(Cl)cc1NS(=O)(=O)c1ccc(Cl)c(C(F)(F)F)c1`, the IC50 was less than 1000 nM.

Turning to `CCOC(=O)c1nnc(-c2ncc(Cl)cc2NS(=O)(=O)c2ccc(Cl)c(C(F)(F)F)c2)n1-c1ccon1`, the half-maximal inhibitory concentration (IC50) was less than 1000 nM.

On to `CC(C)n1c(C(N)=O)nnc1-c1ncc(Cl)cc1NS(=O)(=O)c1ccc(Cl)c(C(F)(F)F)c1`, for which the half-inhibitory concentration (IC50) is less than 1000 nM.

Regarding `CCOC(=O)c1nnc(-c2ncc(Cl)cc2NS(=O)(=O)c2ccc(Cl)c(C(F)(F)F)c2)n1C(C)C`, the IC50 is less than 1000 nM.

Take `O=S(=O)(Nc1cc(Cl)cnc1-c1nncn1C1CCNCC1)c1ccc(Cl)c(C(F)(F)F)c1`: the IC50 is less than 1000 nM.

Regarding `CC(C)NC(=O)c1nnc(-c2ncc(Cl)cc2NS(=O)(=O)c2ccc(Cl)c(C(F)(F)F)c2)n1-c1ccon1`, the IC50 is less than 1000 nM.

For `Cn1nccc1-n1cnnc1-c1ncc(Cl)cc1NS(=O)(=O)c1ccc(Cl)c(C(F)(F)F)c1`, the IC50 is less than 1000 nM.

As for `Cc1ccccc1-n1cnnc1-c1ncc(Cl)cc1NS(=O)(=O)c1ccc(Cl)c(C(F)(F)F)c1`, the IC50 was less than 1000 nM.

For the compound `NC(=O)c1nnc(-c2ncc(Cl)cc2NS(=O)(=O)c2ccc(Cl)c(Cl)c2)n1-c1ccon1`, the IC50 was less than 1000 nM.

As for `CC(C)n1c(CN(C)C)nnc1-c1ncc(Cl)cc1NS(=O)(=O)c1ccc(Cl)c(C(F)(F)F)c1`, the half-maximal inhibitory concentration (IC50) is less than 1000 nM.

Take `Cc1nnc(-c2ncc(Cl)cc2NS(=O)(=O)c2ccc(Cl)c(C(F)(F)F)c2)n1-c1n[nH]cc1Br`: the IC50 is less than 1000 nM.

As to `CC(C)n1c(C(=O)N(C)C)nnc1-c1ncc(Cl)cc1NS(=O)(=O)c1ccc(Cl)c(C(F)(F)F)c1`, the IC50 is less than 1000 nM.

For `Cc1ccc(S(=O)(=O)Nc2cc(Cl)cnc2-c2nnc(C(N)=O)n2-c2ccon2)cc1C(F)(F)F`, the 50% inhibitory concentration (IC50) is less than 1000 nM.

On to `CCNC(=O)c1nnc(-c2ncc(Cl)cc2NS(=O)(=O)c2ccc(Cl)c(C(F)(F)F)c2)n1-c1ccon1`, for which the half-inhibitory concentration (IC50) was less than 1000 nM.
